Among the data in patent US7745636B2, “Hepatitis C virus inhibitors” (Bristol-Myers Squibb Company, priority 2006, dated 2010) are EC50 values, retold here.

This test relates to HCV 1b-377-neo replicon cells. As to the kind of experiment: HCV Replicon assay, HCV 1b-377-neo replicon cells. Conditions: Hepatitis C virus, Table 2, read-out: Range (EC50 against HCV 1b). The class given is cell-based, HCV 1b genotype. The method, then:
An HCV Replicon assay was utilized in the present disclosure, and was prepared, conducted and validated as described in commonly owned PCT/US2006/022197 and in O'Boyle et. al. Antimicrob Agents Chemother. 2005 April; 49(4):1346-53.
HCV 1b-377-neo replicon cells were used to test the currently described compound series as well as cells resistant to compound A due to a Y2065H mutation in NS5A (described in application PCT/US2006/022197). The compounds tested were determined to have more than 10-fold less inhibitory activity on cells resistant to compound A than wild-type cells indicating a related mechanism of action between the two compound series. Thus, the compounds of the present disclosure can be effective to inhibit the function of the HCV NS5A protein and are understood to be as effective in combinations as previously described in application PCT/US2006/022197 and commonly owned WO/O4014852. Further, the compounds of the present disclosure can be effective against the HCV 1b genotype. It should also be understood that the compounds of the present disclosure can inhibit multiple genotypes of HCV. […] In one embodiment compounds of the present disclosure are active against the 1a, 1b, 2a, 2b, 3a, 4a, and 5a genotypes.
One may read the EC50 as the concentration giving half of the maximal effect. Consider `CN(C)[C@@H](C(=O)N1CSC[C@H]1c1ncc(-c2ccc(-c3ccc(-c4cnc([C@@H]5CSCN5C(=O)[C@@H](c5ccccc5)N(C)C)[nH]4)cc3)cc2)[nH]1)c1ccccc1` [Example 148, (1R,1′R)-2,2′-(4,4′-biphenyldiylbis(1H-imidazole-5,2-diyl(4R)-1,3-thiazolidine-4,3-diyl))bis(N,N-dimethyl-2-oxo-1-phenylethanamine)], for which the EC50 is 1 to 99 nM. Turning to `CN(C)[C@@H](C(=O)N1CCC[C@H]1c1ncc(-c2ccc(-c3ncc(-c4cnc([C@@H]5CCCN5C(=O)[C@@H](c5ccccc5)N(C)C)[nH]4)cn3)cc2)[nH]1)c1ccccc1` [Example 152j-1, (1R)-2-((2S)-2-(5-(2-(4-(2-((2S)-1-((2R)-2-(dimethylamino)-2-phenylacetyl)-2-pyrrolidinyl)-1H-imidazol-5-yl)phenyl)-5-pyrimidinyl)-1H-imidazol-2-yl)-1-pyrrolidinyl)-N,N-dimethyl-2-oxo-1-phenylethanamine], the EC50 lay within 1 to 99 nM. To `COC(=O)N[C@@H](C(=O)N1CCC[C@H]1c1ncc(-c2ccc(-c3ncc(-c4cnc([C@@H]5CCCN5C(=O)[C@H](NC(=O)OC)c5ccccc5)[nH]4)cn3)cc2)[nH]1)c1ccccc1` [Example 152j-2, methyl ((1R)-2-((2S)-2-(5-(2-(4-(2-((2S)-1-((2R)-2-((methoxycarbonyl)amino)-2-phenylacetyl)-2-pyrrolidinyl)-1H-imidazol-5-yl)phenyl)-5-pyrimidinyl)-1H-imidazol-2-yl)-1-pyrrolidinyl)-2-oxo-1-phenylethyl)carbamate] belongs 0.001 to 0.999 nM; to `COC(=O)N[C@@H](C(=O)N1CCC[C@H]1c1ncc(-c2ccc(-c3ncc(-c4cnc([C@@H]5CCCN5C(=O)Cc5cccnc5)[nH]4)cn3)cc2)[nH]1)c1ccccc1` [Example 152j-3, methyl ((1R)-2-oxo-1-phenyl-2-((2S)-2-(5-(4-(5-(2-((2S)-1-(3-pyridinylacetyl)-2-pyrrolidinyl)-1H-imidazol-5-yl)-2-pyrimidinyl)phenyl)-1H-imidazol-2-yl)-1-pyrrolidinyl)ethyl)car bamate], 0.001 to 0.999 nM; to `O=C([C@@H](c1ccccc1)N1CCCCC1)N1CCC[C@H]1c1ncc(-c2ccc(-c3ncc(-c4cnc([C@@H]5CCCN5C(=O)[C@@H](c5ccccc5)N5CCCCC5)[nH]4)cn3)cc2)[nH]1` [Example 152j-5, 5-(2-((2S)-1-((2R)-2-phenyl-2-(1-piperidinyl)acetyl)-2-pyrrolidinyl)-1H-imidazol-5-yl)-2-(4-(2-((2S)-1-((2R)-2-phenyl-2-(1-piperidinyl)acetyl)-2-pyrrolidinyl)-1H-imidazol-4-yl)phenyl)pyrimidine], 0.001 to 0.999 nM. For `C[C@@H](c1ncc(-c2ccc(-c3ncc(-c4cnc([C@@H]5CCCN5C(=O)[C@@H](c5ccccc5)N5CCCCC5)[nH]4)cn3)cc2)[nH]1)N(C)C(=O)[C@@H](c1ccccc1)N1CCCCC1` [Example 152j-6, (2R)-N-methyl-2-phenyl-N-((1S)-1-(4-(4-(5-(2-((2S)-1-((2R)-2-phenyl-2-(1-piperidinyl)acetyl)-2-pyrrolidinyl)-1H-imidazol-5-yl)-2-pyrimidinyl)phenyl)-1H-imidazol-2-yl)ethyl)-2-(1-piperidinyl)acetamide] the value was 0.001 to 0.999 nM. Turning to `CN(C)[C@@H](C(=O)N1CCC[C@H]1c1ncc(-c2ccc(-c3cnc(-c4cnc([C@@H]5CCCN5C(=O)[C@@H](c5ccccc5)N(C)C)[nH]4)cn3)cc2)[nH]1)c1ccccc1` [Example 152j-7, (1R)-2-((2S)-2-(5-(5-(4-(2-((2S)-1-((2R)-2-(dimethylamino)-2-phenylacetyl)-2-pyrrolidinyl)-1H-imidazol-5-yl)phenyl)-2-pyrazinyl)-1H-imidazol-2-yl)-1-pyrrolidinyl)-N,N-dimethyl-2-oxo-1-phenylethanamine], the EC50 lay within 1 to 99 nM.

Take `COC(=O)N[C@@H](C(=O)N1CCC[C@H]1c1ncc(-c2ccc(-c3cnc(-c4cnc([C@@H]5CCCN5C(=O)[C@H](NC(=O)OC)c5ccccc5)[nH]4)cn3)cc2)[nH]1)c1ccccc1` [Example 152j-8, methyl ((1R)-2-((2S)-2-(5-(5-(4-(2-((2S)-1-((2R)-2-((methoxycarbonyl)amino)-2-phenylacetyl)-2-pyrrolidinyl)-1H-imidazol-5-yl)phenyl)-2-pyrazinyl)-1H-imidazol-2-yl)-1-pyrrolidinyl)-2-oxo-1-phenylethyl)carbamate]: the EC50 is 0.001 to 0.999 nM. In the case of `CN(C)[C@@H](C(=O)N1CCC[C@H]1c1ncc(-c2ccc(-c3ccc(-c4cnc([C@@H]5CCCN5C(=O)[C@@H](c5ccccc5)N(C)C)[nH]4)nn3)cc2)[nH]1)c1ccccc1` [Example 152j-9, (1R)-2-((2S)-2-(5-(6-(4-(2-((2S)-1-((2R)-2-(dimethylamino)-2-phenylacetyl)-2-pyrrolidinyl)-1H-imidazol-5-yl)phenyl)-3-pyridazinyl)-1H-imidazol-2-yl)-1-pyrrolidinyl)-N,N-dimethyl-2-oxo-1-phenylethanamine], the EC50 is 1 to 99 nM. `COC(=O)N[C@@H](C(=O)N1CCC[C@H]1c1ncc(-c2ccc(-c3ccc(-c4cnc([C@@H]5CCCN5C(=O)[C@H](NC(=O)OC)c5ccccc5)[nH]4)nn3)cc2)[nH]1)c1ccccc1` [Example 152j-10, methyl ((1R)-2-((2S)-2-(5-(6-(4-(2-((2S)-1-((2R)-2-((methoxycarbonyl)amino)-2-phenylacetyl)-2-pyrrolidinyl)-1H-imidazol-5-yl)phenyl)-3-pyridazinyl)-1H-imidazol-2-yl)-1-pyrrolidinyl)-2-oxo-1-phenylethyl)carbamate]: the EC50 lay in the range of 1 to 99 nM. To `C[C@H](NC(=O)[C@@H](c1ccccc1)N(C)C)c1ncc(-c2ccc(-c3ccc(-c4cnc([C@@H]5CCCN5C(=O)[C@@H](c5ccccc5)N(C)C)[nH]4)cn3)cc2)[nH]1` [Example 152j-11, (2R)-2-(dimethylamino)-N-((1S)-1-(5-(4-(5-(2-((2S)-1-((2R)-2-(dimethylamino)-2-phenylacetyl)-2-pyrrolidinyl)-1H-imidazol-5-yl)-2-pyridinyl)phenyl)-1H-imidazol-2-yl)ethyl)-2-phenylacetamide] belongs 0.001 to 0.999 nM. As to `COC(=O)N[C@@H](C(=O)N[C@@H](C)c1ncc(-c2ccc(-c3ccc(-c4cnc([C@@H]5CCCN5C(=O)[C@H](NC(=O)OC)c5ccccc5)[nH]4)cn3)cc2)[nH]1)c1ccccc1` [Example 152j-12, methyl ((1R)-2-((2S)-2-(5-(6-(4-(2-((1S)-1-(((2R)-2-((methoxycarobnyl)amino)-2-phenylace-tyl)amino)eth-yl)-1H-imidazol-5-yl)phenyl)-3-pyridinyl)-1H-imidazol-2-yl)-1-pyrrolidinyl)-2-oxo-1-phenylethyl)carbamate], the EC50 was 0.001 to 0.999 nM.

Regarding `C[C@H](NC(=O)[C@@H](c1ccccc1)N(C)C)c1ncc(-c2ccc(-c3ccc(-c4cnc([C@@H]5CCCN5C(=O)[C@@H](c5ccccc5)N(C)C)[nH]4)nn3)cc2)[nH]1` [Example 152j-13, (2R)-2-(dimethylamino)-N-((1S)-1-(5-(4-(6-(2-((2S)-1-((2R)-2-(dimethylamino)-2-phenylacetyl)-2-pyrrolidinyl)-1H-imidazol-5-yl)-3-pyridazinyl)phenyl)-1H-imidazol-2-yl)ethyl)-2-phenylacetamide], the EC50 lay within 1 to 99 nM.

On to `COC(=O)N[C@@H](C(=O)N[C@@H](C)c1ncc(-c2ccc(-c3ccc(-c4cnc([C@@H]5CCCN5C(=O)[C@H](NC(=O)OC)c5ccccc5)[nH]4)nn3)cc2)[nH]1)c1ccccc1` [Example 152j-14, methyl ((1R)-2-((2S)-2-(5-(6-(4-(2-((1S)-1-(((2R)-2-((methoxycarobnyl)amino)-2-phenylace-tyl)amino)eth-yl)-1H-imidazol-5-yl)phenyl)-3-pyridazinyl)-1H-imidazol-2-yl)-1-pyrrolidinyl)-2-oxo-1-phenylethyl)carbamate], for which the EC50 lay within 1 to 99 nM. With `COC(=O)N[C@@H](C(=O)N[C@@H](C)c1ncc(-c2ccc(-c3ncc(-c4cnc([C@@H]5CCCN5C(=O)[C@H](NC(=O)OC)c5ccccc5)[nH]4)cn3)cc2)[nH]1)c1ccccc1` [Example 152j-15, methyl ((1R)-2-((2S)-2-(5-(2-(4-(2-((1S)-1-(((2R)-2-((methoxycarbonyl)amino)-2-phenylace-tyl)amino)eth-yl)-1H-imidazol-5-yl)phenyl)-5-pyrimidinyl)-1H-imidazol-2-yl)-1-pyrrolidinyl)-2-oxo-1-phenylethyl)carbamate], the half-maximal effective concentration (EC50) was in the range of 0.001 to 0.999 nM. Consider `C[C@H](NC(=O)[C@@H](c1ccccc1)N(C)C)c1ncc(-c2cnc(-c3ccc(-c4cnc([C@@H]5CCCN5C(=O)[C@@H](c5ccccc5)N(C)C)[nH]4)cc3)nc2)[nH]1` [Example 152j-16, (2R)-2-(dimethylamino)-N-((1S)-1-(5-(2-(4-(2-((2S)-1-((2R)-2-(dimethylamino)-2-phenylacetyl)-2-pyrrolidinyl)-1H-imidazol-5-yl)phenyl)-5-pyrimidinyl)-1H-imidazol-2-yl)ethyl)-2-phenylacetamide], for which the EC50 was 0.001 to 0.999 nM.

Turning to `COC(=O)N[C@@H](C(=O)N[C@@H](C)c1ncc(-c2cnc(-c3ccc(-c4cnc([C@@H]5CCCN5C(=O)[C@H](NC(=O)OC)c5ccccc5)[nH]4)cc3)nc2)[nH]1)c1ccccc1` [Example 152j-17, methyl ((1R)-2-((2S)-2-(5-(4-(5-(2-((1S)-1-(((2R)-2-((methoxycarbonyl)amino)-2-phenylace-tyl)amino)eth-yl)-1H-imidazol-5-yl)-2-pyrimidinyl)phenyl)-1H-imidazol-2-yl)-1-pyrrolidinyl)-2-oxo-1-phenylethyl)carbamate], the EC50 lay within 0.001 to 0.999 nM.
